Assay results as given in US10603319B2, “Pyrimidine derivatives and their use in treating or preventing a respiratory syncytial virus infection” (REVIRAL LIMITED, priority 2016, dated 2020).
Read-outs that look alike come from different tables or passages of the source.

Tests used:
Format in all cases: cell-based
RSV A2 VR-1540 = assay: Plaque Reduction Assay 2 (HEp-2 cells, virospot count); settings: human respiratory syncytial virus, 24 h; RSV A2, HEp-2 cells, 1 day
Description: Plaque Reduction Assay 2:
This RSV plaque reduction assay is an infectivity assay which allows quantification of the number of infectious units in a distinct foci of RSV infection. This is indicated by zones of viral antigen detected by specific antibody staining within a monolayer of otherwise healthy tissue culture cells. As each plaque originates from a single infectious virus particle an accurate calculation of the anti-viral effect can be obtained by counting plaques in the presence and absence of an anti-viral compound. HEp-2 cells (ATCC, CCL23) were passaged in flasks and seeded in 96-well plates in DMEM containing antibiotics and supplemented with 10% FBS. During inoculation and subsequent incubation, cells were cultured in DMEM containing 3% FBS. 100 plaque forming unit (PFU)/well of RSV (RSV A2 VR-1540) was mixed with ten serial dilutions of compound. Subsequently, 100 μL of the virus/compound mixtures was added to confluent HEp-2 cell monolayers. The cells and virus/compound mixtures were incubated at 35° C. in a humidified 5% CO2 incubator for 1 day.
Cells were washed twice with PBS before adding 50% v/v EtOH/MeOH, and then stored at −20° C. On the day of the staining, fixative was first removed from the plates. Plates were washed 3× with PBS. A pre-titrated amount of the primary antibody was added in 60 μL PBS/2% milk powder, and plates incubated for 1 h at rt. The plates were washed 3× with PBS/0.05% Tween20 before addition of goat anti-mouse horse radish peroxidase in 60 μL PBS/2% milk powder, and incubated for 1 h at rt. Following three wash steps with PBS/0.05% Tween20, 60 μL ready-to-use TrueBlue was added and plates were incubated at rt for 10-15 min before adding MilliQ water. Plates were washed once with water, incubated for 30-60 min and after removal of water, air-dried in the dark.
Plates were scanned and analyzed using the Immunospot S6 UV analyzer, which is equipped with BioSpot analysis software for counting immunostained plaques (virospots). Plaque counts were used to calculate % infection relative to the mean of the spot count (SC) in the virus control wells for RSV. IC50/IC90 values were calculated as 50% or 90% reduction in signal, respectively, by interpolation of inhibition curves fitted with a 4-parameter nonlinear regression with a variable slope in GraphPad 5.0 (Prism).

RSV A2_F = molecular target: T1, RSV A2_F (Human respiratory syncytial virus A, UniProt P03420); assay: RSV fusion assay (luciferase reporter, HEK 293T/17 cells transfected with A2_F); settings: 24 hr
T1 construct: expressed in transfected cells; host or cells: HEK 293T/17
T1 sequence (P03420 137-574): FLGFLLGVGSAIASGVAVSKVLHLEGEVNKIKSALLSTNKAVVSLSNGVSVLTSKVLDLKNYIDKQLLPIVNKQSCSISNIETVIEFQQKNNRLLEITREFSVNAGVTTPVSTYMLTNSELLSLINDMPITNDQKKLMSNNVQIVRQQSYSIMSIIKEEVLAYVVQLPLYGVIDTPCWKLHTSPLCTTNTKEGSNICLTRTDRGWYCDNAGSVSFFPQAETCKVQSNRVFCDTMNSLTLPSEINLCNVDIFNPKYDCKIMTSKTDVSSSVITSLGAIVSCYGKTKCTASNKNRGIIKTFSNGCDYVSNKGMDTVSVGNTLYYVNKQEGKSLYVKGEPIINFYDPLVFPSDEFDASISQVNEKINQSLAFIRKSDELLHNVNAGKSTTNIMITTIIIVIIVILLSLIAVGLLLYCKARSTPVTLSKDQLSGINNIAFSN
T1 sequence (P03420 26-109): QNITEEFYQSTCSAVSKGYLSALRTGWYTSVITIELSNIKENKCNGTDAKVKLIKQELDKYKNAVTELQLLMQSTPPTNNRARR
Protocol: HEK 293T/17 cells were cultured in T75 culture flasks in Dulbecco's medium (DMEM) containing 10% FBS and 1× Penicillin-Streptomycin (Pen/Strep) and warmed to 37° C. prior to use. The cells were passaged by first washing briefly with 3 ml phosphate buffered saline (PBS) followed by a 4 min incubation with […] at 37° C. 7 ml media was then added to the flask and the cells dispersed via pipetting (×3) against the bottom of the flask. Two further T75 flasks were each seeded with 2×10^6 cells in 15 ml fresh media.
Cells were seeded on the T75 plates at the same density as on the 6-well plates the area of a T75 flask and one 1.75 cm radius well from a 6-well plate were compared. 7.79×2 ml of 3×10^5 cells ml^−1 was used to seed a single T75 flask.
HEK cells were removed from a T75 flask as described above. The cells were counted and diluted to 3×10^5 cells/ml in fresh media. Two T75 flasks were each seeded with 15.58 ml diluted cells.
The plasmid DNA (for pFR-Luc and pcDNA3.1_Gal4/NFκB) to be transfected into the HEK cells was first prepared in serum free media (DMEM+Pen/Strep) containing the transfection reagent Fugene 6 (Promega). Transfections were set up as follows (Luc=pFR_Luc, Gal4=pcDNA3.1+_Gal4/NFκB, A2_F=pcDNA3.1+_A2_F)
Serum free media was placed in a 1.5 ml eppendorf tube then the fugene 6 was added into the media. The tube was vortexed for 1 s before being incubated at RT for 5 min. The plasmid DNA was then added to the tube, vortexed for 1 s, then incubated at RT for 15 min
The transfection reagents were then added to the appropriate T75 flask by tipping the flask on end and adding the reagents directly to the media already in the flask. The flask was then tipped on its back so the media could be mixed thoroughly whilst not disturbing the cells before placing the flask the right way up and incubating overnight at 37° C. and 5% CO2.
Compounds were diluted (in a polypropylene round-bottomed 96 well plate) 1:3 in a twelve point dilution curve to give top [final] of either 3.3 μM, 1 μM, 500 nM 200 nM or 100 nM. The Control compound was always run at a concentration of 100 nM.
The cells were then counted and diluted to 4×10^5 cells/ml in fresh media. 50 μl of transfection population 1 cells were added to all wells of the assay plates. 100 μl diluted compound (2 rows per compound), standard curve (one row) and controls (100 nM RV (100% inhibition, four wells), DMSO (0% inhibition, eight wells)) were added to the appropriate wells. 50 μl of the diluted (4×10^5 cells/ml) transfection population 2 cells when then added to all wells.
The plates were then incubated for 24 hr at 37° C. and 5% CO2
Buffers were prepared for the luciferase assay (20 mM tricine, 10 mM MgSO4, 1 mM EDTA, 10 mM DTT) and lysis (25 mM tris-phosphate, 8 mM MgCl2, 1 mM DTT, 1% Triton X-100, 15% glycerol) and stored at −20° C.
Luminescence was measured as described:
Media was discarded into Virkon and the plates washed with 100 ul PBS per well. 20 ul/well of lysis buffer was added to each well and incubated shaking for 5 min at RT. Luciferin was added to LAAB at a dilution of 1:50 to give a working luciferin buffer. 100 μl working luciferin buffer was added to each well and luminescence was measured immediately. […]

RSV A2 = assay: Plaque Reduction Assay 1 (Vero cells, immunostaining); settings: two replicate values, read-out: RSV Plaque Reduction assays A2 (PRNT1) (n = 2) IC50
Protocol: Plaque Reduction Assay 1: Vero cells were seeded in 96-well plates in a volume of 100 μL of Optimem supplemented with 3% FCS at a concentration of 4×10^4 cells per well. After an overnight incubation at 37° C. in a humidified 5% CO2 atmosphere, the monolayer of cells should be approximately 90% confluent. Antiviral compounds were titrated in pre-warmed Serum Free (SF) Optimem in a U-bottom 96 well plate. For compounds in a DMSO solution, titration in 100% DMSO was performed first and each concentration added individually to a 2× final concentration at 4% DMSO in SF media before mixing with virus (2% final DMSO with virus). Media was then removed from cells and replaced with PBS (100 μl/well). RSV stock was thawed and diluted in SF Optimem media to 4000 PFU/mLl. An equal volume of virus was added to compounds on the titration plate. PBS was removed from cells which were then inoculated with the virus/compound solution (50 μL/well). Cells were incubated for 2 h in a 37° C.+5% CO2 humidified incubator to allow infection. Inoculum was removed and media (Optimem+1% FCS) added to cells (100 μl/well). Cells were subsequently incubated for 48 h at 37° C.+5% CO2 in a humidified incubator. Immunostaining Procedure: Media was removed from cells and the monolayer washed with PBS. Cells were fixed with ice cold 80% Acetone in PBS (100 μl/well) for 20 mins at −20° C. Fixative was removed and cells are dried for 30 mins with plates inverted. Blocking solution (5% skim milk powder in PBS-T) was added to cells (150 μL/well) and plates were incubated for 30 mins at room temperature. Blocking solution was removed and plates washed once with PBS-T. Primary antibody in blocking solution was added to plates (50 μl/well) and incubated for 1 h at 37° C. Plates were then washed 3 times with PBS-T. Secondary antibody in blocking solution was added to plates ([…]) and incubated for 1 h at 37° C. in the dark. Plates were washed as above and then dried for 10 mins. Plates were scanned on the Odyssey Imager (Li-Cor Biosciences) at a resolution of […], medium quality and level 5 intensity in the […]. Data Analysis: Images obtained were saved and plaque numbers counted with the aid of computer imaging software. EC50 values for compounds were derived from dose response curves [three variable log(inhibitor) vs response] obtained using Graphpad Prism software.

[1] = Fusion activity IC50 μM, HEK 293T/17 cells

Row | SMILES | IC50 (RSV A2 VR-1540) | IC50 (RSV A2_F; [1]) | IC50 (RSV A2; human respiratory syncytial virus, Vero) | IC50 (RSV A2) | IC50 (RSV A2_F; Fusion activity PIC50, HEK 293T/17 cells)
1 | NC1CCN(c2ncc(CN3C(=O)C4(CC4)c4ccc(F)cc43)c(NC3CCOCC3)n2)C1 (stereo not drawn) [Compound 10, 1′-((2-(3-Aminopyrrolidin-1-yl)-4-((tetrahydro-2H-pyran-4-yl)amino)pyrimidin-5-yl)methyl)-6′-fluorospiro[cyclopropane-1,3′-indolin]-2′-one] | 33 nM | 0.184 µM |  |  | 
2 | NC1CCN(c2ncc(CN3C(=O)C4(CC4)c4ccc(F)cc43)c(NCCCO)n2)C1 (stereo not drawn) [Compound 27, 1′-{[2-(3-Aminopyrrolidin-1-yl)-4-[(3-hydroxypropyl)amino]pyrimidin-5-yl]methyl}-6′-fluoro-1′,2′-dihydrospiro[cyclopropane-1,3′-indole]-2′-one] | 34 nM | 1.09 µM |  |  | 
3 | CCCNc1nc(N2CCC(N)C2)ncc1CN1C(=O)C2(CC2)c2ccc(F)cc21 (stereo not drawn) [Compound 28, 1′-{[2-(3-Aminopyrrolidin-1-yl)-4-(propylamino)pyrimidin-5-yl]methyl}-6′-fluoro-1′,2′-dihydrospiro[cyclopropane-1,3′-indole]-2′-one] | 63 nM | 1.23 µM |  |  | 
4 | CCNc1nc(N2CCC(N)C2)ncc1CN1C(=O)C2(CC2)c2ccc(F)cc21 (stereo not drawn) [Compound 29, 1′-{[2-(3-Aminopyrrolidin-1-yl)-4-(ethylamino)pyrimidin-5-yl]methyl}-6′-fluoro-1′,2′-dihydrospiro[cyclopropane-1,3′-indole]-2′-one] | 740 nM | 1.17 µM |  |  | 
5 | NCCNc1ncc(CN2C(=O)C3(CC3)c3ccc(F)cc32)c(NCCCCO)n1 [Compound 25, 1′-({2-[(2-Aminoethyl)amino]-4-[(4-hydroxybutyl)amino]pyrimidin-5-yl}methyl)-6′-fluoro-1′,2′-dihydrospiro[cyclopropane-1,3′-indole]-2′-one] | 49 nM | 0.212 µM |  |  | 
6 | NC1CCN(c2ncc(CN3C(=O)C4(CCC4)c4ccc(F)cc43)c(N[C@H]3CC[C@H](O)CC3)n2)C1 (stereo partly drawn) [Compound 20, 1′-{[2-(3-Aminopyrrolidin-1-yl)-4-[(4-hydroxycyclohexyl)amino]pyrimidin-5-yl]methyl}-6′-fluoro-1′,2′-dihydrospiro[cyclobutane-1,3′-indole]-2′-one] | 116 nM | 1.95 µM |  |  | 
7 | CC(C)CCNc1nc(N2CCC(N)C2)ncc1CN1C(=O)C2(CC2)c2ccc(F)cc21 (stereo not drawn) [Compound 1, 1′-((2-(3-Aminopyrrolidin-1-yl)-4-(isopentylamino)pyrimidin-5-yl)methyl)-6′-fluorospiro[cyclopropane-1,3′-indolin]-2′-one] |  | 0.708 µM | 619 nM | 316 nM | 
8 | NC1CCN(c2ncc(CN3C(=O)C4(CC4)c4ccc(F)cc43)c(C#CCCCO)n2)C1 (stereo not drawn) [Compound 21, 1′-{[2-(3-Aminopyrrolidin-1-yl)-4-(5-hydroxypent-1-yn-1-yl)pyrimidin-5-yl]methyl}-6′-fluoro-1′,2′-dihydrospiro[cyclopropane-1,3′-indole]-2′-one] |  |  |  |  | 25.1 µM
9 | NC1CCN(c2ncc(CN3C(=O)C4(CC4)c4ccc(F)cc43)c(N3CCS(=O)(=O)CC3)n2)C1 (stereo not drawn) [Compound 13, 1′-((2-(3-Aminopyrrolidin-1-yl)-4-(1,1-dioxidothiomorpholino)pyrimidin-5-yl)methyl)-6′-fluorospiro[cyclopropane-1,3′-indolin]-2′-one] | 424 nM | 5.04 µM |  |  | 
10 | NC1CCN(c2ncc(CN3C(=O)C4(CC4)c4ccc(F)cc43)c(NCC3CCOCC3)n2)C1 (stereo not drawn) [Compound 23, 1′-{[2-(3-Aminopyrrolidin-1-yl)-4-{[(oxan-4-yl)methyl]amino}pyrimidin-5-yl]methyl}-6′-fluoro-1′,2′-dihydrospiro[cyclopropane-1,3′-indole]-2′-one] |  | 0.451 µM |  |  | 
11 | CC(C)CCNc1nc(N2CCCC2)ncc1CN1C(=O)C2(CC2)c2ccc(F)cc21 [Compound 7, 6′-Fluoro-1′-((4-(isopentylamino)-2-(pyrrolidin-1-yl)pyrimidin-5-yl)methyl)spiro[cyclopropane-1,3′-indolin]-2′-one] |  | 1.99 µM |  |  | 
12 | COCCCNc1nc(N2CCC(N)C2)ncc1CN1C(=O)C2(CC2)c2ccc(F)cc21 (stereo not drawn) [Compound 11, 1′-((2-(3-Aminopyrrolidin-1-yl)-4-((3-methoxypropyl)amino)pyrimidin-5-yl)methyl)-6′-fluorospiro[cyclopropane-1,3′-indolin]-2′-one] |  | 0.424 µM |  |  | 
